From publication PMC10980263, “Cryo-EM structures of the human NaS1 and NaDC1 transporters revealed the elevator transport and allosteric regulation mechanism” (Science Advances, 2024)
Residue numbers refer to the chain shown, from its start.

How the values were obtained:
NaDC1 [1] = target: T1, NaDC1 (Homo sapiens, UniProt Q13183, T142A); test: CD thermal melting at […] nm; type: binding; conditions: absolute Tm in presence of citrate, not a shift
T1 construct: gene SLC13A2; full length, homodimer; N-terminal FLAG purified from HEK293F (structures, natural variant I550V); GFP and FLAG tagged in HEK293T for currents
T1 sequence (Q13183 1-592 T142A): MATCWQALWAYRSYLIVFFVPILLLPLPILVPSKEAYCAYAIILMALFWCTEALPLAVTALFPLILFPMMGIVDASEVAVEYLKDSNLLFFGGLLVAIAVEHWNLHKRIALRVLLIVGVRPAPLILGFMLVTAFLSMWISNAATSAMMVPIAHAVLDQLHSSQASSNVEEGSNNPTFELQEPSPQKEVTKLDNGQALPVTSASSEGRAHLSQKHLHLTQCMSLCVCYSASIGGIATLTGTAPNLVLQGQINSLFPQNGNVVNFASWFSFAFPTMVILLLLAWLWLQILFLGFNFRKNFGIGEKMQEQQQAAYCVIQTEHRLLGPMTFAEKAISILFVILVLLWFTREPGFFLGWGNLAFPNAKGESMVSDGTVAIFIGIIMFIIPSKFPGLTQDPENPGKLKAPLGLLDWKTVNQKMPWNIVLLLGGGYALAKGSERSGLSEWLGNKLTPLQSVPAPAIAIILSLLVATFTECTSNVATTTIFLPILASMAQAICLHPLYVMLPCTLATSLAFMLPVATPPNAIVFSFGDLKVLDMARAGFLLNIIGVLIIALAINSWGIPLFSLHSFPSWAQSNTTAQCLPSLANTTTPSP

NaDC1 [2] = target: T2, NaDC1 (Homo sapiens, UniProt Q13183); test: whole-cell patch clamp, transfected HEK293T; type: cell-based; set-up: gene SLC13A2; full length, homodimer; GFP and FLAG tagged in HEK293T for currents; conditions: gradient of citrate concentrations; 140 mM NaCl bath, pH 7.4
T2 sequence (Q13183 1-592): T1 sequence (Q13183 1-592 T142A) with A142T

NaDC1 [3] = target: T3, NaDC1 (Homo sapiens, UniProt Q13183, N476A); test: CD thermal melting at […] nm; type: binding; conditions: absolute Tm in presence of citrate, not a shift
T3 construct: gene SLC13A2; full length, homodimer; N-terminal FLAG purified from HEK293F (structures, natural variant I550V); GFP and FLAG tagged in HEK293T for currents
T3 sequence (Q13183 1-592 N476A): T1 sequence (Q13183 1-592 T142A) with A142T, N476A

NaDC1 [4] = target: T4, NaDC1 (Homo sapiens, UniProt Q13183, R108A); test: whole-cell patch clamp, transfected HEK293T; type: cell-based; conditions: citrate-induced current; 140 mM NaCl bath, pH 7.4
T4 construct: gene SLC13A2; full length, homodimer; N-terminal FLAG purified from HEK293F (structures, natural variant I550V); GFP and FLAG tagged in HEK293T for currents
T4 sequence (Q13183 1-592 R108A): T1 sequence (Q13183 1-592 T142A) with R108A, A142T

NaDC1 [5] = target: T2, NaDC1; test: CD thermal melting at […] nm; type: binding; set-up: gene SLC13A2; full length, homodimer; N-terminal FLAG purified from HEK293F (structures, natural variant I550V); GFP and FLAG tagged in HEK293T for currents; conditions: absolute Tm in presence of citrate, not a shift; whether WT carries I550V not stated

Tm (NaDC1 [1]): 56.4 ± 0.3 °C
Tm (NaDC1 [3]): 60.5 ± 0.7 °C
Tm (NaDC1 [5]): 62.9 ± 0.3 °C
Compound: O=C(O)CC(O)(CC(=O)O)C(=O)O [citrate]
whole-cell patch clamp, transfected HEK293T (NaDC1 [2]): wild-type (WT) NaDC1 is indeed capable of transporting citrate
whole-cell patch clamp, transfected HEK293T (NaDC1 [4]): The R108A mutant substantially reduced the citrate-induced current than WT in NaDC1
